The record followed here is PubChem BioAssay (NCI).

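Assay format: 96-well plates, 48-hour exposure. TGI marks complete inhibition of growth.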

The test system of one test is DU-145 prostate. Put plainly: growth of human tumour cells (NCI), 48 h.
Consider `CC(C)(C)OC(=O)N/N=C(/N)Cc1ccc(Cl)cc1`, for which the TGI was more than 100 µM.

A further test concerns HCT-116 colon. Put plainly: growth of human tumour cells (NCI), 48 h.
In the case of `COCc1nc(N)nc(N2N=C(C)CC2(C)C)n1`, the TGI is more than 100 µM.
In turn, `Cc1ccccc1-n1c(=O)c2ncn(C3CCCO3)c2n(-c2ccccc2C)c1=S` (stereo unspecified) displayed a TGI of more than 100 µM.
Still for that read-out and setting: then `CC1(/C=C/CCSc2ccccc2)CC(=O)C2CC1C2(C)C` (stereo unspecified), with more than 100 µM; and `C/C(=N\Nc1ccc([N+](=O)[O-])cc1[N+](=O)[O-])c1sc(-n2nc(-c3ccccc3)cc2-c2ccccc2)nc1C`, with more than 100 µM.
Same read-out and setting: then `CS(=O)(=O)OCC1CN(S(C)(=O)=O)c2cc(O)ccc21` (stereo unspecified), with 12.8 µM; and `O=c1[nH]cc(-c2c[nH]c3ccccc23)nc1-c1c[nH]c2ccccc12`, with 26.7 µM.
In the case of `CC(=O)Nc1ccc(C(O)/C(=N/N)c2nc3ccc(Cl)cc3[nH]c2=O)cc1` (stereo unspecified), the TGI was more than 100 µM.
The compound `Nc1n[n+](CC(=O)c2ccccc2)c2sc(-c3ccccc3)nn12` registered a TGI of more than 100 µM.
Still for that read-out and setting: with `CC1=NN(C(=O)c2ccncc2)C(=O)C1` the figure was more than 100 µM; with `CCN1C(=O)c2cc(OC)c(OC)cc2C(=O)C12OC(=O)c1cc3c(cc12)OCO3` (stereo unspecified), more than 100 µM.
For the compound `O=C1CCCN1C(=O)CS(=O)(=O)c1ccccc1`, the TGI was more than 100 µM.
On the same count and under the same terms, then `Cc1cc(C)c(-n2[nH]c(=O)n(C)c2=O)c(C)c1`, with more than 100 µM.
On the same count and under the same terms, with `CC1=NC(=Cc2cccc(Cl)c2)C(=O)N1n1c(-c2ccccc2)nc2ccccc2c1=O` the figure was more than 100 µM; with `COC1=CC(=O)C2=C(C1=O)[C@H]1CC[C@]3(C)[C@@H](O)CC[C@H]3[C@@H]1CC2`, 30.7 µM; with `CCC(CCCN)Nc1cc(OC)cc2c(C)ccnc12` (stereo unspecified), 37.2 µM.
The same measure, in the same setting: then `CC(C)(C)OC(=O)N/N=C(/N)Cc1ccc(Cl)cc1`, with more than 100 µM.

In another test the test system is HL-60(TB) leukemia. Put plainly: growth of human tumour cells (NCI), 48 h.
As to `COCc1nc(N)nc(N2N=C(C)CC2(C)C)n1`, the TGI was more than 100 µM.
On the same count and under the same terms, then `Cc1ccccc1-n1c(=O)c2ncn(C3CCCO3)c2n(-c2ccccc2C)c1=S` (stereo unspecified), with more than 100 µM.
The same measure, in the same setting: with `C/C(=N\Nc1ccc([N+](=O)[O-])cc1[N+](=O)[O-])c1sc(-n2nc(-c3ccccc3)cc2-c2ccccc2)nc1C` the figure was 44.5 µM; with `CS(=O)(=O)OCC1CN(S(C)(=O)=O)c2cc(O)ccc21` (stereo unspecified), 6.59 µM; with `CC(=O)Nc1ccc(C(O)/C(=N/N)c2nc3ccc(Cl)cc3[nH]c2=O)cc1` (stereo unspecified), more than 100 µM.
On to `CC1=NN(C(=O)c2ccncc2)C(=O)C1`, for which the TGI is more than 100 µM.
Still for that read-out and setting: then `Cc1cc(C)c(-n2[nH]c(=O)n(C)c2=O)c(C)c1`, with more than 100 µM; and `CC1=NC(=Cc2cccc(Cl)c2)C(=O)N1n1c(-c2ccccc2)nc2ccccc2c1=O`, with 61.6 µM.
Turning to `CO/C(=N\N=C\c1ccc(OC)c(OC)c1)c1ccncc1`, the TGI was more than 10 µM.
Same read-out and setting: then `COC1=CC(=O)C2=C(C1=O)[C@H]1CC[C@]3(C)[C@@H](O)CC[C@H]3[C@@H]1CC2`, with 46.5 µM; and `CCC(CCCN)Nc1cc(OC)cc2c(C)ccnc12` (stereo unspecified), with 27.7 µM.

A further test concerns HOP-62 NSCLC. Briefly: growth of human tumour cells (NCI), 48 h.
Compound `COCc1nc(N)nc(N2N=C(C)CC2(C)C)n1` displayed a TGI of more than 100 µM.
Take `Cc1ccccc1-n1c(=O)c2ncn(C3CCCO3)c2n(-c2ccccc2C)c1=S` (stereo unspecified): the TGI was more than 100 µM.
As for `CC1(/C=C/CCSc2ccccc2)CC(=O)C2CC1C2(C)C` (stereo unspecified), the TGI was more than 100 µM.
Still for that read-out and setting: with `C/C(=N\Nc1ccc([N+](=O)[O-])cc1[N+](=O)[O-])c1sc(-n2nc(-c3ccccc3)cc2-c2ccccc2)nc1C` the figure was more than 100 µM.
Still for that read-out and setting: with `CS(=O)(=O)OCC1CN(S(C)(=O)=O)c2cc(O)ccc21` (stereo unspecified) the figure was 7.01 µM; with `O=c1[nH]cc(-c2c[nH]c3ccccc23)nc1-c1c[nH]c2ccccc12`, 27.3 µM; with `CC(=O)Nc1ccc(C(O)/C(=N/N)c2nc3ccc(Cl)cc3[nH]c2=O)cc1` (stereo unspecified), more than 100 µM.
In turn, `Nc1n[n+](CC(=O)c2ccccc2)c2sc(-c3ccccc3)nn12` came in with a TGI of more than 100 µM.
Still for that read-out and setting: then `CC1=NN(C(=O)c2ccncc2)C(=O)C1`, with more than 100 µM.
On the same count and under the same terms, then `CCN1C(=O)c2cc(OC)c(OC)cc2C(=O)C12OC(=O)c1cc3c(cc12)OCO3` (stereo unspecified), with more than 100 µM; and `O=C1CCCN1C(=O)CS(=O)(=O)c1ccccc1`, with more than 100 µM.
Compound `CC1=NC(=Cc2cccc(Cl)c2)C(=O)N1n1c(-c2ccccc2)nc2ccccc2c1=O` came in with a TGI of 55.2 µM.
`CO/C(=N\N=C\c1ccc(OC)c(OC)c1)c1ccncc1` returned a TGI of more than 10 µM.
Consider `COC1=CC(=O)C2=C(C1=O)[C@H]1CC[C@]3(C)[C@@H](O)CC[C@H]3[C@@H]1CC2`, for which the TGI is 29.7 µM.
Regarding `CCC(CCCN)Nc1cc(OC)cc2c(C)ccnc12` (stereo unspecified), the TGI came out at 29.2 µM.
`CC(C)(C)OC(=O)N/N=C(/N)Cc1ccc(Cl)cc1` had a TGI of more than 100 µM.

Another test relates to HS 578T breast. Briefly: growth of human tumour cells (NCI), 48 h.
On to `COCc1nc(N)nc(N2N=C(C)CC2(C)C)n1`, for which the TGI is more than 100 µM.
`Cc1ccccc1-n1c(=O)c2ncn(C3CCCO3)c2n(-c2ccccc2C)c1=S` (stereo unspecified) gave a TGI of more than 100 µM.
For `CC1(/C=C/CCSc2ccccc2)CC(=O)C2CC1C2(C)C` (stereo unspecified), the TGI is more than 100 µM.
Still for that read-out and setting: then `C/C(=N\Nc1ccc([N+](=O)[O-])cc1[N+](=O)[O-])c1sc(-n2nc(-c3ccccc3)cc2-c2ccccc2)nc1C`, with more than 100 µM.
As for `CS(=O)(=O)OCC1CN(S(C)(=O)=O)c2cc(O)ccc21` (stereo unspecified), the TGI was more than 100 µM.
Same read-out and setting: then `O=c1[nH]cc(-c2c[nH]c3ccccc23)nc1-c1c[nH]c2ccccc12`, with 39.9 µM; and `CC(=O)Nc1ccc(C(O)/C(=N/N)c2nc3ccc(Cl)cc3[nH]c2=O)cc1` (stereo unspecified), with more than 100 µM; and `Nc1n[n+](CC(=O)c2ccccc2)c2sc(-c3ccccc3)nn12`, with more than 100 µM.
Still for that read-out and setting: then `CC1=NN(C(=O)c2ccncc2)C(=O)C1`, with more than 100 µM; and `CCN1C(=O)c2cc(OC)c(OC)cc2C(=O)C12OC(=O)c1cc3c(cc12)OCO3` (stereo unspecified), with more than 100 µM; and `O=C1CCCN1C(=O)CS(=O)(=O)c1ccccc1`, with more than 100 µM.
Same read-out and setting: with `Cc1cc(C)c(-n2[nH]c(=O)n(C)c2=O)c(C)c1` the figure was more than 100 µM.
In turn, `CC1=NC(=Cc2cccc(Cl)c2)C(=O)N1n1c(-c2ccccc2)nc2ccccc2c1=O` returned a TGI of more than 100 µM.
In turn, `CO/C(=N\N=C\c1ccc(OC)c(OC)c1)c1ccncc1` showed a TGI of more than 10 µM.
On the same count and under the same terms, with `COC1=CC(=O)C2=C(C1=O)[C@H]1CC[C@]3(C)[C@@H](O)CC[C@H]3[C@@H]1CC2` the figure was 42.7 µM.
On the same count and under the same terms, with `CCC(CCCN)Nc1cc(OC)cc2c(C)ccnc12` (stereo unspecified) the figure was 27.6 µM; with `CC(C)(C)OC(=O)N/N=C(/N)Cc1ccc(Cl)cc1`, more than 100 µM.

In the next test the test system is LOX IMVI melanoma. Put plainly: growth of human tumour cells (NCI), 48 h.
`COCc1nc(N)nc(N2N=C(C)CC2(C)C)n1` registered a TGI of more than 100 µM.
`Cc1ccccc1-n1c(=O)c2ncn(C3CCCO3)c2n(-c2ccccc2C)c1=S` (stereo unspecified): the TGI was more than 100 µM.
Regarding `CC1(/C=C/CCSc2ccccc2)CC(=O)C2CC1C2(C)C` (stereo unspecified), the TGI was found to be 43.9 µM.
The compound `C/C(=N\Nc1ccc([N+](=O)[O-])cc1[N+](=O)[O-])c1sc(-n2nc(-c3ccccc3)cc2-c2ccccc2)nc1C` gave a TGI of 63.9 µM.
Consider `CS(=O)(=O)OCC1CN(S(C)(=O)=O)c2cc(O)ccc21` (stereo unspecified), for which the TGI was found to be 13.3 µM.
